# From patent US10919935B2, “Antimicrobial peptide derived from myxinidin peptide and uses thereof” (INDUSTRY-ACADEMIC COOPERATION FOUNDATION, CHOSUN UNIVERSITY, priority 2015, dated 2021)
# Residues, ends and D or L forms follow the SMILES beside them.
# Tests used:
# [1] = tested on: skin wound of mouse infected with bacteria having tolerance to antibiotics; experiment: Healing of infected skin wound of mouse; format: in vivo, BALB/c female mouse; settings: 5 mm biopsy punch wound, peptide at 2 times MIC, observed for 2 weeks
# Source text: Healing process of skin wound of a mouse induced by the synthetic peptide of the present invention, in which the mouse has been infected with Acinetobacter baumannii, Pseudomonas aeruginosa, or Staphylococcus aureus as the bacterial strain having tolerance to antibiotics, was observed during different time periods. The animal tissue was stained by hematoxylin and eosin (H & E) staining to examine the skin tissue having inflammation.
# Specifically, a wound was created in a 6 week to 7 week old BALB/c female mouse using 5 mm biopsy punch. Then, the mouse was infected with Staphylococcus aureus, Acinetobacter baumannii, or Pseudomonas aeruginosa, which are the bacterial strain having tolerance to antibiotics, followed by administration of the peptide at a concentration that is 2 times higher than the minimum inhibitory concentration.
# P. aeruginosa = experiment: Anti-biofilm activity (crystal violet); format: cell-based, Pseudomonas aeruginosa
# Description: (§1) To compare the antimicrobial activity of the peptide produced by the method of Example 1, the inventors of the present invention measured the biofilm inhibitory concentration value of the peptide showing no dissociation of bacterial cells.
# (§2) Specifically, the Gram-negative bacteria and Gram-positive bacteria among the bacterial strains described in the above Table 2 were cultured in each medium to a mid-log phase. Then, after dilution to bacterial cell concentration of 5×10^5 cells/100 μl, the cells were inoculated to a microtiter plate (NUNC, USA). Thereafter, myxinidin 1, myxinidin 2, or myxinidin 3 peptides which have been synthesized in Example 1 above was diluted, 1/10 times for each, with physiological saline (PBS) solution in a 96-well plate. After adding the cells to a plate, the cells were cultured for 12 hours at 37° C. After removing the supernatant, the cells were fixed with 100% methanol and reacted for 2 hours with Crystal violet staining solution followed by rinsing for 3 times. Then, after dissolving in 95% ethanol, the absorbance was measured at a wavelength of 595 nm by using a microtiter plate reader (Merck Elisa reader, Germany) to determine the biofilm inhibitory concentration value of each bacterial strain. As a control group, myxinidin as a mother peptide was subjected to the same processes as above and the biofilm inhibitory concentration value of each bacterial strain was obtained.
# S. aureus = experiment: Anti-biofilm activity (crystal violet); format: cell-based, Staphylococcus aureus
# Description: as §1, §2
# Escherichia coli 1238 = experiment: MIC at salt concentration (Example 3); format: cell-based
# Description: as §1, with “minimum growth” for “biofilm”, “(MIC), which is minimum concentration” for “value”, “cells, at salt concentration.” for “cells.”
# (§3) Specifically, the bacterial strain described in the above Table 2 was cultured in each medium to a mid-log phase. Then, after dilution to bacterial cell concentration of 2×10^5 cells/100 μl, the cells were inoculated to a microtiter plate (NUNC, USA). Thereafter, myxinidin 1, myxinidin 2, or myxinidin 3 peptides which have been synthesized in Example 1 above was diluted, 1/2 times for each, with BSA+150 mM sodium chloride (NaCl) solution, physiological saline (PBS) solution, or 10 mM sodium phosphate (SP) solution in a 96-well plate. After adding the cells to a plate, the cells were cultured for 12 hours at 37° C. By using a microtiter plate reader (Merck Elisa reader, Germany), the absorbance was measured at a wavelength of 600 nm to determine the MIC value of each bacterial strain. As a control group, myxinidin as a mother peptide was subjected to the same processes as above and the MIC value of each bacterial strain was obtained.
# Escherichia coli = experiment: MIC at salt concentration (Example 3); format: cell-based
# Description: as §1, with “minimum growth” for “biofilm”, “(MIC), which is minimum concentration” for “value”, “cells, at salt concentration.” for “cells.”
# as §3
# Escherichia coli 1229 = experiment: MIC at salt concentration (Example 3); format: cell-based
# Description: as §1, with “minimum growth” for “biofilm”, “(MIC), which is minimum concentration” for “value”, “cells, at salt concentration.” for “cells.”
# as §3
# L. monocytogenes = experiment: Anti-biofilm activity (crystal violet); format: cell-based, Listeria monocytogenes
# Description: as §1, §2
# S. typhimurium 8009 = experiment: MIC at salt concentration (Example 3); format: cell-based, Salmonella typhimurium
# Description: as §1, with “minimum growth” for “biofilm”, “(MIC), which is minimum concentration” for “value”, “cells, at salt concentration.” for “cells.”
# as §3
# S. typhimurium 8013 = experiment: MIC at salt concentration (Example 3); format: cell-based, Salmonella typhimurium
# Description: as §1, with “minimum growth” for “biofilm”, “(MIC), which is minimum concentration” for “value”, “cells, at salt concentration.” for “cells.”
# as §3
# S. typhimurium = experiment: MIC at salt concentration (Example 3); format: cell-based, Salmonella typhimurium
# Description: as §1, with “minimum growth” for “biofilm”, “(MIC), which is minimum concentration” for “value”, “cells, at salt concentration.” for “cells.”
# as §3
# [2] = NaCl (BSA+150 mM sodium chloride)
structure (smiles),measurement,setting,value
"CC[C@H](C)[C@H](NC(=O)[C@H](Cc1c[nH]c2ccccc12)NC(=O)[C@H](CCCCN)NC(=O)[C@@H](NC(=O)[C@@H](N)CCCCN)[C@@H](C)CC)C(=O)N[C@@H](CC(C)C)C(=O)N[C@@H](CCCCN)C(=O)N[C@@H](Cc1ccc(O)cc1)C(=O)N[C@@H](Cc1c[nH]c2ccccc12)C(=O)N[C@@H](CCCCN)C(=O)N[C@@H](Cc1c[nH]c2ccccc12)C(=O)N[C@@H](CO)C(N)=O [Myxinidin 2, KIKWILKYWKWS-NH2] (H-KIKWILKYWKWS-NH2; N-terminus assumed)",Wound healing of infected mouse skin wound,[1],showed epidermalization and wound maturation
same,Biofilm forming ability,P. aeruginosa; peptide 0.25 μM,100%
same,Biofilm forming ability,P. aeruginosa; peptide 0.5 μM,98%
same,Biofilm forming ability,P. aeruginosa; peptide 1 μM,95%
same,Biofilm forming ability,P. aeruginosa; peptide 2 μM,83%
same,Biofilm forming ability,P. aeruginosa; peptide 4 μM,29%
same,Biofilm forming ability,P. aeruginosa; peptide 8 μM,13%
same,Biofilm forming ability,P. aeruginosa; peptide 16 μM,5%
same,Biofilm forming ability,P. aeruginosa; peptide 32 μM,5%
same,Biofilm forming ability,S. aureus; peptide 0.25 μM,100%
same,Biofilm forming ability,S. aureus; peptide 0.5 μM,97%
same,Biofilm forming ability,S. aureus; peptide 1 μM,97%
same,Biofilm forming ability,S. aureus; peptide 2 μM,97%
same,Biofilm forming ability,S. aureus; peptide 4 μM,93%
same,Biofilm forming ability,S. aureus; peptide 8 μM,89%
same,Biofilm forming ability,S. aureus; peptide 16 μM,24%
same,Biofilm forming ability,S. aureus; peptide 32 μM,15%
same,Antimicrobial activity (MIC) according to salt concentration,Escherichia coli 1238; [2],8
same,Antimicrobial activity (MIC) according to salt concentration,Escherichia coli 1238; PBS,2
same,Antimicrobial activity (MIC) according to salt concentration,Escherichia coli 1238; SP (10 mM sodium phosphate),4
same,Antimicrobial activity (MIC) according to salt concentration,Escherichia coli; [2],8
same,Antimicrobial activity (MIC) according to salt concentration,Escherichia coli; PBS,4
same,Antimicrobial activity (MIC) according to salt concentration,Escherichia coli; SP (10 mM sodium phosphate),2
same,Antimicrobial activity (MIC) according to salt concentration,Escherichia coli 1229; [2],8
same,Antimicrobial activity (MIC) according to salt concentration,Escherichia coli 1229; PBS,2
same,Antimicrobial activity (MIC) according to salt concentration,Escherichia coli 1229; SP (10 mM sodium phosphate),2
same,Biofilm forming ability,L. monocytogenes; peptide 0.25 μM,100%
same,Biofilm forming ability,L. monocytogenes; peptide 0.5 μM,100%
same,Biofilm forming ability,L. monocytogenes; peptide 1 μM,100%
same,Biofilm forming ability,L. monocytogenes; peptide 2 μM,100%
same,Biofilm forming ability,L. monocytogenes; peptide 4 μM,99%
same,Biofilm forming ability,L. monocytogenes; peptide 8 μM,93%
same,Biofilm forming ability,L. monocytogenes; peptide 16 μM,45%
same,Biofilm forming ability,L. monocytogenes; peptide 32 μM,33%
same,Antimicrobial activity (MIC) according to salt concentration,S. typhimurium 8009; [2],8
same,Antimicrobial activity (MIC) according to salt concentration,S. typhimurium 8009; PBS,4
same,Antimicrobial activity (MIC) according to salt concentration,S. typhimurium 8009; SP (10 mM sodium phosphate),4
same,Antimicrobial activity (MIC) according to salt concentration,S. typhimurium 8013; [2],32
same,Antimicrobial activity (MIC) according to salt concentration,S. typhimurium 8013; PBS,8
same,Antimicrobial activity (MIC) according to salt concentration,S. typhimurium 8013; SP (10 mM sodium phosphate),4
same,Antimicrobial activity (MIC) according to salt concentration,S. typhimurium; [2],2
same,Antimicrobial activity (MIC) according to salt concentration,S. typhimurium; PBS,4
same,Antimicrobial activity (MIC) according to salt concentration,S. typhimurium; SP (10 mM sodium phosphate),2
"CC[C@H](C)[C@H](NC(=O)[C@H](Cc1c[nH]c2ccccc12)NC(=O)[C@H](CCCNC(=N)N)NC(=O)[C@@H](NC(=O)[C@@H](N)CCCNC(=N)N)[C@@H](C)CC)C(=O)N[C@@H](CC(C)C)C(=O)N[C@@H](CCCNC(=N)N)C(=O)N[C@@H](Cc1ccc(O)cc1)C(=O)N[C@@H](Cc1c[nH]c2ccccc12)C(=O)N[C@@H](CCCNC(=N)N)C(=O)N[C@@H](Cc1c[nH]c2ccccc12)C(=O)N[C@@H](CO)C(N)=O [Myxinidin 3, RIRWILRYWRWS-NH2] (H-RIRWILRYWRWS-NH2; N-terminus assumed)",Wound healing of infected mouse skin wound,[1],showed epidermalization and wound maturation
same,Biofilm forming ability,P. aeruginosa; peptide 0.25 μM,100%
same,Biofilm forming ability,P. aeruginosa; peptide 0.5 μM,97%
same,Biofilm forming ability,P. aeruginosa; peptide 1 μM,97%
same,Biofilm forming ability,P. aeruginosa; peptide 2 μM,64%
same,Biofilm forming ability,P. aeruginosa; peptide 4 μM,8%
same,Biofilm forming ability,P. aeruginosa; peptide 8 μM,7%
same,Biofilm forming ability,P. aeruginosa; peptide 16 μM,7%
same,Biofilm forming ability,P. aeruginosa; peptide 32 μM,7%
same,Biofilm forming ability,S. aureus; peptide 0.25 μM,85%
same,Biofilm forming ability,S. aureus; peptide 0.5 μM,84%
same,Biofilm forming ability,S. aureus; peptide 1 μM,84%
same,Biofilm forming ability,S. aureus; peptide 2 μM,71%
same,Biofilm forming ability,S. aureus; peptide 4 μM,28%
same,Biofilm forming ability,S. aureus; peptide 8 μM,17%
same,Biofilm forming ability,S. aureus; peptide 16 μM,16%
same,Biofilm forming ability,S. aureus; peptide 32 μM,14%
same,Antimicrobial activity (MIC) according to salt concentration,Escherichia coli 1238; [2],8
same,Antimicrobial activity (MIC) according to salt concentration,Escherichia coli 1238; PBS,4
same,Antimicrobial activity (MIC) according to salt concentration,Escherichia coli 1238; SP (10 mM sodium phosphate),2
same,Antimicrobial activity (MIC) according to salt concentration,Escherichia coli; [2],8
same,Antimicrobial activity (MIC) according to salt concentration,Escherichia coli; PBS,2
same,Antimicrobial activity (MIC) according to salt concentration,Escherichia coli; SP (10 mM sodium phosphate),2
same,Antimicrobial activity (MIC) according to salt concentration,Escherichia coli 1229; [2],2
same,Antimicrobial activity (MIC) according to salt concentration,Escherichia coli 1229; PBS,2
same,Antimicrobial activity (MIC) according to salt concentration,Escherichia coli 1229; SP (10 mM sodium phosphate),2
same,Biofilm forming ability,L. monocytogenes; peptide 0.25 μM,94%
same,Biofilm forming ability,L. monocytogenes; peptide 0.5 μM,87%
same,Biofilm forming ability,L. monocytogenes; peptide 1 μM,87%
same,Biofilm forming ability,L. monocytogenes; peptide 2 μM,83%
same,Biofilm forming ability,L. monocytogenes; peptide 4 μM,22%
same,Biofilm forming ability,L. monocytogenes; peptide 8 μM,21%
same,Biofilm forming ability,L. monocytogenes; peptide 16 μM,18%
same,Biofilm forming ability,L. monocytogenes; peptide 32 μM,16%
same,Antimicrobial activity (MIC) according to salt concentration,S. typhimurium 8009; [2],4
same,Antimicrobial activity (MIC) according to salt concentration,S. typhimurium 8009; PBS,4
same,Antimicrobial activity (MIC) according to salt concentration,S. typhimurium 8009; SP (10 mM sodium phosphate),2
same,Antimicrobial activity (MIC) according to salt concentration,S. typhimurium 8013; [2],8
same,Antimicrobial activity (MIC) according to salt concentration,S. typhimurium 8013; PBS,4
same,Antimicrobial activity (MIC) according to salt concentration,S. typhimurium 8013; SP (10 mM sodium phosphate),2
same,Antimicrobial activity (MIC) according to salt concentration,S. typhimurium; [2],2
same,Antimicrobial activity (MIC) according to salt concentration,S. typhimurium; PBS,2
same,Antimicrobial activity (MIC) according to salt concentration,S. typhimurium; SP (10 mM sodium phosphate),2
